Data set [1] can be described thus: Rat telemetry protocol (core body temperature). It counts as in vivo. The following applies: core body temperature of rats at one hour post dosing (100 μmol/kg, p.o.), relative to vehicle. How it is done: Male, Sprague Dawley rats, 225-250 grams were anesthetized with Sevoflurane (Abbott Laboratories). Rats were placed on a heating pad and covered with a sterile surgical drape. A ventral midline abdominal incision was made and sterile cotton tip applicators were used to gently move internal tissue and expose the abdominal aorta for implantation of the telemetry catheter (Data Sciences International; TL11M2-050-PXT). Blood flow was temporarily stopped to the lower extremities (5-7 min) with Diffenbach clamps to allow the insertion of the telemetry catheter into the abdominal aorta. Once inserted, a sterile cellulose patch was placed over the catheter/aorta and secured using a small amount of tissue adhesive (Vetbond, 3M). Once catheter placement was complete, the clamps were removed and blood flow was restored to the lower extremities. The transmitter was placed in the intraperitoneal cavity. The transmitter suture rib was sewn into the abdominal sutures to secure it in place. The skin was closed using sterile wound clips and the animal removed from Sevoflurane. Buprenex ([…] s.c.; Phoenix) was administered for post-operative analgesia. Animals were maintained on a heating pad until ambulatory, and then individually housed with food and water ad lib. Surgical staples were removed after 7-10 days post-implantation. Rats were allowed a 2-week post-surgical recovery period before treatment with test compound. Oral dosing (p.o.) was at time zero, with rats receiving a single dose of vehicle (10% EtOH, 20% Tween-80, 70% PEG-400) or a 100 μmol/kg dose of compound dissolved in vehicle. Temperature measurements were recorded every 15 minutes for the duration of the study (24 hours).
The term “core body temperature” as used herein, means the temperature measured in the intraperitoneal cavity.

Data set [2] concerns the target T1, human TRPV1 receptor (hTRPV1) (Homo sapiens, UniProt Q8NER1).
T1 construct: expressed in transfected cells
The data set can be described thus: Capsaicin activation assay (Ca2+ influx, FLIPR). The format is cell-based. The following applies: 0.05 μM capsaicin, 1321N1 cells expressing hTRPV1. How it is done: Dulbecco's modified Eagle medium (D-MEM) (with 4.5 mg/mL glucose) and fetal bovine serum were obtained from Hyclone Laboratories, Inc. (Logan, Utah). Dulbecco's phosphate-buffered saline (D-PBS) (with 1 mg/mL glucose and 3.6 mg/l Na pyruvate, without phenol red), L-glutamine, hygromycin B, and Lipofectamine® were obtained from Life Technologies (Grand Island, N.Y.). G418 sulfate was obtained from Calbiochem-Novabiochem Corp. (San Diego, Calif.). Capsaicin (8-methyl-N-vanillyl-6-nonenamide) was obtained from Sigma-Aldrich, Co. (St. Louis, Mo.). Fluo-4 AM (N-[4-[6-[(acetyloxy)methoxy]-2,7-difluoro-3-oxo-3H-xanthen-9-yl]-2-[2-[2-[bis[2-[(acetyloxy)methoxy]-2-oxyethyl]amino]-5-methyl-phenoxy]ethoxy]phenyl]-N-[2-[(acetyloxy)methoxy]-2-oxyethyl]-glycine, (acetyloxy)methyl ester) was purchased from Molecular Probes (Eugene, Oreg.).
The cDNAs for the human TRPV1 receptor (hTRPV1) were isolated by reverse transcriptase-polymerase chain reaction (RT-PCR) from human small intestine poly A+RNA supplied by Clontech (Palo Alto, Calif.) using primers designed surrounding the initiation and termination codons identical to the published sequences (Hayes et al. Pain 2000, 88, 205-215). The resulting cDNA PCR products were subcloned into pCIneo mammalian expression vector (Promega) and fully sequenced using fluorescent dye-terminator reagents (Prism, Perkin-Elmer Applied Biosystems Division) and a Perkin-Elmer Applied Biosystems Model 373 DNA sequencer or Model 310 genetic analyzer. Expression plasmids encoding the hTRPV1 cDNA were transfected individually into 1321N1 human astrocytoma cells using Lipofectamine®. Forty-eight hours after transfection, the neomycin-resistant cells were selected with growth medium containing 800 μg/mL Geneticin (Gibco BRL). Surviving individual colonies were isolated and screened for TRPV1 receptor activity. Cells expressing recombinant homomeric TRPV1 receptors were maintained at 37° C. in D-MEM containing 4 mM L-glutamine, 300 μg/mL G418 (Cal-biochem) and 10% fetal bovine serum under a humidified 5% CO2 atmosphere.
The functional activity of compounds at the TRPV1 receptor was determined with a Ca^2+ influx assay and measurement of intracellular Ca^2+ levels ([Ca^2+]i). All compounds were tested over an 11-point half-log concentration range. Compound solutions were prepared in D-PBS (4× final concentration), and diluted serially across 96-well v-bottom tissue culture plates using a Biomek 2000 robotic automation workstation (Beckman-Coulter, Inc., Fullerton, Calif.). A 0.2 μM solution of the TRPV1 agonist capsaicin was also prepared in D-PBS. The fluorescent Ca^2+ chelating dye Fluo-4 AM was used as an indicator of the relative levels of [Ca^2+]i in a 96-well format using a Fluorescence Imaging Plate Reader (FLIPR) (Molecular Devices, Sunnyvale, Calif.). Cells were grown to confluency in 96-well black-walled tissue culture plates. Then, prior to the assay, the cells were loaded with 100 μL per well of Fluo-4 AM (2 μM, in D-PBS) for 1-2 hours at 23° C. Washing of the cells was performed to remove extracellular Fluo-4 AM (2×1 mL D-PBS per well), and afterward, the cells were placed in the reading chamber of the FLIPR instrument. 50 μL of the compound solutions were added to the cells at the 10 second time mark of the experimental run. Then, after a 3-minute time delay, 50 μL of the capsaicin solution was added at the, 190 second time mark (0.05 μM final concentration)(final volume=200 μL) to challenge the TRPV1 receptor. Time length of the experimental run was 240 seconds. Fluorescence readings were made at 1 to 5 second intervals over the course of the experimental run. The peak increase in relative fluorescence units (minus baseline) was calculated from the 190 second time mark to the end of the experimental run, and expressed as a percentage of the 0.05 μM capsaicin (control) response. […]

Results on 15 compounds are retold here after patent US8609692B2, “TRPV1 antagonists” (AbbVie Inc., priority 2008, dated 2013).

T1 sequence (Q8NER1 whole entry): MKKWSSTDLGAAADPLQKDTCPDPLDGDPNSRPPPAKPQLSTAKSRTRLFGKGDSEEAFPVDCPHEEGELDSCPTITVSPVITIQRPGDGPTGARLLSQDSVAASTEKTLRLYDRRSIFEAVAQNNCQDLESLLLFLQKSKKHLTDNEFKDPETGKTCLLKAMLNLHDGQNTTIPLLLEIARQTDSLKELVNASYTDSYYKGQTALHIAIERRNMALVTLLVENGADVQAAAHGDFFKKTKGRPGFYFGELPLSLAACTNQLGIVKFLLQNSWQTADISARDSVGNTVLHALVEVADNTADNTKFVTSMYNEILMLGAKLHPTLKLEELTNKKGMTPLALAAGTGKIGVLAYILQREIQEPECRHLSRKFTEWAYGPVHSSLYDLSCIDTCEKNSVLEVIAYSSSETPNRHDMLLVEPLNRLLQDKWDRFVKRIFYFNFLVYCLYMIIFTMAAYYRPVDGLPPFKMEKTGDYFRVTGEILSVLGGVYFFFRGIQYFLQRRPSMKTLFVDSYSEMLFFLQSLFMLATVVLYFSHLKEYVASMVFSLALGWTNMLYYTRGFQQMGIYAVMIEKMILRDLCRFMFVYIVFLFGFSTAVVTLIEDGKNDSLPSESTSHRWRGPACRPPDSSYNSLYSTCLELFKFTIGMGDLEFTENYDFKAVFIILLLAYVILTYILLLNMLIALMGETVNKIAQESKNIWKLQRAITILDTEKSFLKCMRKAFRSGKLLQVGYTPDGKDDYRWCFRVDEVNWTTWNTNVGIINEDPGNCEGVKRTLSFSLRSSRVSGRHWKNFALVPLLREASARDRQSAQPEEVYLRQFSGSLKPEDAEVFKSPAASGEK

Regarding `Cc1cc2c(NC(=O)N[C@@H]3CC(C)(C)Oc4c3ccc(C(F)(F)F)c4F)cccc2cn1` [Example 99, N-[(4R)-8-fluoro-2,2-dimethyl-7-(trifluoromethyl)-3,4-dihydro-2H-chromen-4-yl]-N′-(3-methylisoquinolin-5-yl)urea], the “Δ Temp” value in data set [1] turned out to be 0.8 °C. In addition, the IC50 in data set [2] stood at 7 nM.
The corresponding values for `CC1(C)C[C@@H](NC(=O)Nc2cccc3c2C[C@@H](O)CC3)c2ccc(Cl)cc2O1` [Example 103, N-[(4R)-7-chloro-2,2-dimethyl-3,4-dihydro-2H-chromen-4-yl]-N′-[(7S)-7-hydroxy-5,6,7,8-tetrahydronaphthalen-1-yl]urea] are 1.3 °C and 21 nM.
`O=C(Nc1cccc2c1C[C@@H](O)CC2)N[C@@H]1CC(CF)(CF)Oc2cc(Cl)ccc21` [Example 104, N-[(4R)-7-chloro-2,2-bis(fluoromethyl)-3,4-dihydro-2H-chromen-4-yl]-N′-[(7S)-7-hydroxy-5,6,7,8-tetrahydronaphthalen-1-yl]urea]: the “Δ Temp” value in data set [1] worked out at 1.1 °C. For the same compound, in data set [2], half-maximal inhibition (IC50) was put at 25 nM.
For the compound `O=C(Nc1cccc2c1C[C@H](O)CC2)N[C@@H]1CC(CF)(CF)Oc2cc(Cl)ccc21` [Example 105, N-[(4R)-7-chloro-2,2-bis(fluoromethyl)-3,4-dihydro-2H-chromen-4-yl]-N′-[(7R)-7-hydroxy-5,6,7,8-tetrahydronaphthalen-1-yl]urea], in data set [1], the “Δ Temp” value was found to be 1.1 °C. Besides, in data set [2], the midpoint of inhibition, the IC50, lay at 35 nM.
Turning to `O=C(Nc1cccc2c1C[C@@H](O)CC2)N[C@@H]1CC(CF)(CF)Oc2c(F)cccc21` [Example 107, N-[(4R)-8-fluoro-2,2-bis(fluoromethyl)-3,4-dihydro-2H-chromen-4-yl]-N′-[(7S)-7-hydroxy-5,6,7,8-tetrahydronaphthalen-1-yl]urea], the “Δ Temp” value in data set [1] came to 0.9 °C. This compound also yielded an IC50 in data set [2] of 53 nM.
In the case of `CC1(C)C[C@@H](NC(=O)Nc2cccc3c2C[C@H](O)CC3)c2ccc(F)c(Cl)c2O1` [Example 108, N-[(4R)-8-chloro-7-fluoro-2,2-dimethyl-3,4-dihydro-2H-chromen-4-yl]-N′-[(7R)-7-hydroxy-5,6,7,8-tetrahydronaphthalen-1-yl]urea], the “Δ Temp” value in data set [1] stood at 1.2 °C. Further, inhibition in data set [2] was half-maximal at 21 nM (IC50).
On to `CC1(C)C[C@@H](NC(=O)Nc2cccc3c2C[C@@H](O)CC3)c2ccc(F)c(Cl)c2O1` [Example 109, N-[(4R)-8-chloro-7-fluoro-2,2-dimethyl-3,4-dihydro-2H-chromen-4-yl]-N′-[(7S)-7-hydroxy-5,6,7,8-tetrahydronaphthalen-1-yl]urea], for which the “Δ Temp” value in data set [1] was 1.2 °C. The half-inhibitory concentration (IC50) in data set [2] worked out at 21 nM.
On the same counts, the results for `O=C(Nc1cccc2c1C[C@@H](O)CC2)N[C@@H]1CC(CF)(CF)Oc2cc(C(F)(F)F)ccc21` [Example 112, N-[(4R)-2,2-bis(fluoromethyl)-7-(trifluoromethyl)-3,4-dihydro-2H-chromen-4-yl]-N′-[(7S)-7-hydroxy-5,6,7,8-tetrahydronaphthalen-1-yl]urea] are 1.4 °C and 34 nM.
Consider `CC1(C)C[C@@H](NC(=O)Nc2cccc3c2C[C@@H](O)CC3)c2ccc(F)c(F)c2O1` [Example 114, N-[(4R)-7,8-difluoro-2,2-dimethyl-3,4-dihydro-2H-chromen-4-yl]-N′-[(7S)-7-hydroxy-5,6,7,8-tetrahydronaphthalen-1-yl]urea], for which the “Δ Temp” value in data set [1] came to 0.6 °C. The compound also registered an IC50 in data set [2] of 15 nM.
Consider `CC1(C)C[C@@H](NC(=O)Nc2cccc3c2C[C@H](O)CC3)c2ccc(OC(F)(F)F)cc2O1` [Example 115, N-[(4R)-2,2-dimethyl-7-(trifluoromethoxy)-3,4-dihydro-2H-chromen-4-yl]-N′-[(7R)-7-hydroxy-5,6,7,8-tetrahydronaphthalen-1-yl]urea], for which the “Δ Temp” value in data set [1] worked out at 1.2 °C. The compound further registered an IC50 in data set [2] of 23 nM.
Take `CC1(C)C[C@@H](NC(=O)Nc2cccc3c2C[C@@H](O)CC3)c2ccc(OC(F)(F)F)cc2O1` [Example 116, N-[(4R)-2,2-dimethyl-7-(trifluoromethoxy)-3,4-dihydro-2H-chromen-4-yl]-N′-[(7S)-7-hydroxy-5,6,7,8-tetrahydronaphthalen-1-yl]urea]: in data set [1], the “Δ Temp” value is 1.1 °C. For the same compound, half-maximal inhibition in data set [2] (IC50) required 13 nM.
On the same counts, the results for `Cc1cc2c(NC(=O)NC3CC(C)(C)Oc4c3ccc(N3CCCCC3)c4F)cccc2cn1` (stereo not drawn) [Example 117, N-(8-fluoro-2,2-dimethyl-7-piperidin-1-yl-3,4-dihydro-2H-chromen-4-yl)-N′-(3-methylisoquinolin-5-yl)urea] are 1.0 °C and 82 nM.
Turning to `Cc1cc2c(NC(=O)N[C@@H]3CC(C)(C)Oc4cc(C(F)(F)F)ccc43)c(F)ccc2cn1` [Example 125, N-[(4R)-2,2-dimethyl-7-(trifluoromethyl)-3,4-dihydro-2H-chromen-4-yl]-N′-(6-fluoro-3-methylisoquinolin-5-yl)urea], in data set [1], the “Δ Temp” value turned out to be 0.5 °C. The IC50 in data set [2] turned out to be 35 nM.
Regarding `Cc1cc2c(NC(=O)N[C@@H]3C[C@@](C)(CF)Oc4cc(C(F)(F)F)ccc43)cccc2cn1` [Example 129, N-[(2S,4R)-2-(fluoromethyl)-2-methyl-7-(trifluoromethyl)-3,4-dihydro-2H-chromen-4-yl]-N′-(3-methylisoquinolin-5-yl)urea], the “Δ Temp” value in data set [1] amounted to 0.7 °C. Besides, in data set [2], the IC50 was found to be 15 nM.
As to “N-[(4R)-8-tert-butyl-3,4-dihydro-2H-chromen-4-yl]-N-(3-methylisoquinolin-5-yl)urea, hydrochloride salt [Example 100]”, in data set [1], the “Δ Temp” value was found to be 1.7 °C. The midpoint of inhibition in data set [2], the IC50, lay at 7 nM.
